What all share (assay): cell-based
One assay concerns the target hNav1.5 (Homo sapiens, UniProt Q14524). Particulars: IonWorks Quattro, use-dependent block, hNav1.5; read-out: IWQ Use Nav1.5.
The target of another assay is hNav1.3 (Homo sapiens, UniProt Q9NY46). Particulars: IonWorks Quattro, use-dependent block, hNav1.3; read-out: IWQ Use Nav1.3. For orientation: The patch-clamp technique gives a direct electrical read-out from membranes.
The next assay deals with hNav1.7 (Homo sapiens, UniProt Q15858). It counts as cell-based. Particulars: IonWorks Quattro, use-dependent block, hNav1.7; read-out: IWQ Use Nav1.7.
Chain of hNav1.7 (Q15858 whole entry, looked up): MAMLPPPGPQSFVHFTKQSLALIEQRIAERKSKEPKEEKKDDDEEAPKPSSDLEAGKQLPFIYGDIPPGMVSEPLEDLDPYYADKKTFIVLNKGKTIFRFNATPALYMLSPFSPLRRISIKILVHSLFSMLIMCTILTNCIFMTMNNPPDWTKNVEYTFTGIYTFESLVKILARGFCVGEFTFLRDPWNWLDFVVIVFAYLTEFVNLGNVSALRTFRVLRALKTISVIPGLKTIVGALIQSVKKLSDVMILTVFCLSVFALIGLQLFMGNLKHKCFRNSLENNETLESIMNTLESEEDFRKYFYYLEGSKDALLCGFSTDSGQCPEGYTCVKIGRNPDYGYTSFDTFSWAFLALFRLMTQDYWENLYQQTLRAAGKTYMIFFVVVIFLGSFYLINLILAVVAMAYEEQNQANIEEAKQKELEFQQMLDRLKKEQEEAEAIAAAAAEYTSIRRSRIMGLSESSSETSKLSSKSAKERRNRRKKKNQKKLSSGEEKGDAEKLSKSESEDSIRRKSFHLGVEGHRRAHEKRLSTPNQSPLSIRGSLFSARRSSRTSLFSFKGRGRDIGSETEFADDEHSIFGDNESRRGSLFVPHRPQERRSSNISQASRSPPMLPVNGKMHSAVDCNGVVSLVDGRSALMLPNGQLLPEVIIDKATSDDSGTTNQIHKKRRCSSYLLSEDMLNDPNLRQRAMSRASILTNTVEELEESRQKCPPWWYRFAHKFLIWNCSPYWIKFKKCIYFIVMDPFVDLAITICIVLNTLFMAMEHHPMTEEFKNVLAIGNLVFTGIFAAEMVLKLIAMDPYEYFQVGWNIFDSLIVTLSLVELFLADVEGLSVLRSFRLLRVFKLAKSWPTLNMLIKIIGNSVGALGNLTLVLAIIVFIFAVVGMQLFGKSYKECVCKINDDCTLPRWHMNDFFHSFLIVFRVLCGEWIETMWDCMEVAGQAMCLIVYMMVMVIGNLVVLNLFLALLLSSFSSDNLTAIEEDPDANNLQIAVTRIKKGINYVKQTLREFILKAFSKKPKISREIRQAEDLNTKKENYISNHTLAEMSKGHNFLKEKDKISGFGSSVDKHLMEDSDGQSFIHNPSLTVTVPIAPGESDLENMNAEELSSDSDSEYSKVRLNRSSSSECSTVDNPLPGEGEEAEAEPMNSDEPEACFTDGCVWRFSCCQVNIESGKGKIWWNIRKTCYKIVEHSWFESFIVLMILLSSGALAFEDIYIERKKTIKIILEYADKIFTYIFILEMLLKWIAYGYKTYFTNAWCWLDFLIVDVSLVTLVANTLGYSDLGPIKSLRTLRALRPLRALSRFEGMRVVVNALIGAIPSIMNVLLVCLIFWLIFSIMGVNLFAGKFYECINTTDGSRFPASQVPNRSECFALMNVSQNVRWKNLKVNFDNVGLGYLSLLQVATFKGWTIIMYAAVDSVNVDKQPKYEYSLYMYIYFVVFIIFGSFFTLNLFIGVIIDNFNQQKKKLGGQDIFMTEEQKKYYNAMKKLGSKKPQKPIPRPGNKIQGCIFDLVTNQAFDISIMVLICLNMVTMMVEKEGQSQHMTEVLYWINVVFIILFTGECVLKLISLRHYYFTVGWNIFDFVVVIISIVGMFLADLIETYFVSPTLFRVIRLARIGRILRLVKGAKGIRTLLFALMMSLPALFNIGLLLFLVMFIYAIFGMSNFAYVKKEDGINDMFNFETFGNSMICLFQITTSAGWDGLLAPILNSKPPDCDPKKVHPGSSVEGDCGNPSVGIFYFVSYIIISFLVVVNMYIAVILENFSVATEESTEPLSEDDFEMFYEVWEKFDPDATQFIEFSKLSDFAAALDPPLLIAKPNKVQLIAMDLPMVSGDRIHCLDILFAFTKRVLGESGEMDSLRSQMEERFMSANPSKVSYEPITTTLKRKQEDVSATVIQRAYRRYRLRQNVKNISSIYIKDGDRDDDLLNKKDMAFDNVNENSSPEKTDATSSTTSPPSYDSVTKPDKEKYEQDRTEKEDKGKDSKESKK

We go through eight compounds from patent publication US9340590B2 (priority 2011, dated 2016).

Positions of bridges follow the written chain, without caps; N, C: chain ends. Residues, ends and D or L forms follow the SMILES beside them. Bounds are passed on as bounds.

Chain of hNav1.5 (Q14524 whole entry, looked up): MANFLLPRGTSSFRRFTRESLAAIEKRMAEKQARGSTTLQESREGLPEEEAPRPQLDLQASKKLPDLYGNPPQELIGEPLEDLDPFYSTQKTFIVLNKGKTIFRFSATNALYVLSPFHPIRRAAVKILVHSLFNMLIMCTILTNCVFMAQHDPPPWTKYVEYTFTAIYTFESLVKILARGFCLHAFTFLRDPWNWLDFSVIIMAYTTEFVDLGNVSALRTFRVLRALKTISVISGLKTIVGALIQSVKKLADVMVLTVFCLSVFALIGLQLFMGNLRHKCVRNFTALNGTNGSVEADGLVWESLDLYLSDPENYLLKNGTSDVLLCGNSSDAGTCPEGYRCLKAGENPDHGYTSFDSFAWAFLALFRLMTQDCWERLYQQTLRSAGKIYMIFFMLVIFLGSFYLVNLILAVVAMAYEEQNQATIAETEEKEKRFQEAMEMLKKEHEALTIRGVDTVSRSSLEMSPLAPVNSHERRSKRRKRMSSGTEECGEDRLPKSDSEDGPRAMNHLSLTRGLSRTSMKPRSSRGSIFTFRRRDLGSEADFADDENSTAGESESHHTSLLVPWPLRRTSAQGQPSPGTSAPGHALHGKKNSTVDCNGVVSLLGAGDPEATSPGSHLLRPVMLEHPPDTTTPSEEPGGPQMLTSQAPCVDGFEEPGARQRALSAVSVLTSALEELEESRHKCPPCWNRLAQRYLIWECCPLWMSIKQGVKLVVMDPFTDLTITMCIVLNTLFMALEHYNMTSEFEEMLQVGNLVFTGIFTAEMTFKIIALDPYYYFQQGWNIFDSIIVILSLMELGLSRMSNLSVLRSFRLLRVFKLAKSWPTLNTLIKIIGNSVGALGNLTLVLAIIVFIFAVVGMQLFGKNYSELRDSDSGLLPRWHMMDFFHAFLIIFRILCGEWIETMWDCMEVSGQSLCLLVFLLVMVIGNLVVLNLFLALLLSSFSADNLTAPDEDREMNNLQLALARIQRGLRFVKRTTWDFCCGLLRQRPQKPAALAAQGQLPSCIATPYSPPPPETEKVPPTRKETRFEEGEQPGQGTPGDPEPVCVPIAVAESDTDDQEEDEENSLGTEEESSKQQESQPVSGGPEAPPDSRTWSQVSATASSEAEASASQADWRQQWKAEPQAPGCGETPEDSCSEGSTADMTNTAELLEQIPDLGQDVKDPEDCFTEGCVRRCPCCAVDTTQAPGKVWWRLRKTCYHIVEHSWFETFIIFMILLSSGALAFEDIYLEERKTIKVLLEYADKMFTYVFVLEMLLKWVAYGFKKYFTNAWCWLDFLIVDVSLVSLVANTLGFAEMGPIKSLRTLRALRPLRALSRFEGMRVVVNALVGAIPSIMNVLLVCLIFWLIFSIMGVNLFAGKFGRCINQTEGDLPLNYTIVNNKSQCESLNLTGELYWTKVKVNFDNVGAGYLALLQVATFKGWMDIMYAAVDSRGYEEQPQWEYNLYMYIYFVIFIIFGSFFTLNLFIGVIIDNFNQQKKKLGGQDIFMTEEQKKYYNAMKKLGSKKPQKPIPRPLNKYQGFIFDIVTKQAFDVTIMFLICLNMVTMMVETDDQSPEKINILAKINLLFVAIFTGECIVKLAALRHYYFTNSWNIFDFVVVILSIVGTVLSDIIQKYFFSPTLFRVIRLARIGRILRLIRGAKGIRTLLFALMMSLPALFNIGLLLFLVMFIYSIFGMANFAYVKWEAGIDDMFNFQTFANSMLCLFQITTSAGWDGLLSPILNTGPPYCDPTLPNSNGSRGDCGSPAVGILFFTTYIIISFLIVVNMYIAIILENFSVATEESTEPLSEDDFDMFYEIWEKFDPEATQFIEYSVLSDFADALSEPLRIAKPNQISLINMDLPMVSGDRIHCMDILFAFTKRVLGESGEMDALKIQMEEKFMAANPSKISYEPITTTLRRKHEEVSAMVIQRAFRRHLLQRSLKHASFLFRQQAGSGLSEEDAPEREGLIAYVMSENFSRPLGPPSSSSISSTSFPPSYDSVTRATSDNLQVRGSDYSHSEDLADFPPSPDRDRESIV

With `CC[C@H](C)[C@@H]1NC(=O)[C@@H]2CSSC[C@@H]3NC(=O)[C@H](C(C)C)NC(=O)[C@H](CC(C)C)NC(=O)[C@H](CC(N)=O)NC(=O)[C@@H]4CCCN4C(=O)[C@H](CCCNC(=N)N)NC(=O)[C@H](CSSC[C@H](NC(=O)[C@@H](N)CC(=O)O)C(=O)N[C@@H](CC(C)C)C(=O)NCC(=O)N[C@@H](C)C(=O)N[C@@H](Cc4ccccc4)C(=O)N[C@@H](CCCNC(=N)N)C(=O)N[C@@H](CCCCN)C(=O)N2)NC(=O)[C@H](CSSC[C@@H](C(=O)N[C@@H](CCCCN)C(=O)N[C@@H](Cc2ccc(O)cc2)C(=O)N[C@H](C(=O)N[C@@H](Cc2ccccc2)C(=O)O)C(C)C)NC(=O)[C@H](Cc2c[nH]c4ccccc24)NC(=O)[C@H](CC(N)=O)NC(=O)[C@H](Cc2c[nH]cn2)NC(=O)[C@H]([C@@H](C)O)NC(=O)[C@H](CCCNC(=N)N)NC(=O)[C@H](CO)NC3=O)NC(=O)[C@H](CCCCN)NC(=O)[C@H](CC(=O)O)NC(=O)[C@H](CC(N)=O)NC(=O)[C@H](CC(=O)O)NC(=O)[C@@H]2CCCN2C1=O` [compound 832] (H-DCLGAFRKCIPDNDKCCRPNLVCSRTHNWCKYVF-OH; disulfide 2-17, 9-23, 16-30), the figures for the IC50 at hNav1.5, on hNav1.3 and on hNav1.7 were more than 5 µM, 4.6 µM and more than 5 µM, respectively.

As for `CC[C@H](C)[C@@H]1NC(=O)[C@@H]2CSSC[C@@H]3NC(=O)[C@H](C(C)C)NC(=O)[C@H](CC(C)C)NC(=O)[C@H](CC(N)=O)NC(=O)[C@@H]4CCCN4C(=O)[C@H](CCCNC(=N)N)NC(=O)[C@H](CSSC[C@H](NC(=O)[C@@H](N)CC(=O)O)C(=O)N[C@@H](CC(C)C)C(=O)NCC(=O)N[C@@H](C)C(=O)N[C@@H](Cc4ccccc4)C(=O)N[C@@H](CCCNC(=N)N)C(=O)N[C@@H](CCCCN)C(=O)N2)NC(=O)[C@H](CSSC[C@@H](C(=O)N[C@@H](CCCCN)C(=O)N[C@@H](Cc2ccc(O)cc2)C(=O)N[C@H](C(=O)N[C@@H](Cc2ccccc2)C(=O)O)C(C)C)NC(=O)[C@H](Cc2c[nH]c4ccccc24)NC(=O)[C@@H]2CCCN2C(=O)[C@H](Cc2c[nH]cn2)NC(=O)[C@H]([C@@H](C)O)NC(=O)[C@H](CCCNC(=N)N)NC(=O)[C@H](CO)NC3=O)NC(=O)[C@H](CCCCN)NC(=O)[C@H](CC(=O)O)NC(=O)[C@H](CC(N)=O)NC(=O)[C@H](CC(=O)O)NC(=O)[C@@H]2CCCN2C1=O` [compound 833] (H-DCLGAFRKCIPDNDKCCRPNLVCSRTHPWCKYVF-OH; disulfide 2-17, 9-23, 16-30), the IC50 on hNav1.5, at hNav1.3 and at hNav1.7 was more than 5 µM throughout.

Consider `CC[C@H](C)[C@@H]1NC(=O)[C@@H]2CSSC[C@@H]3NC(=O)[C@H](C(C)C)NC(=O)[C@H](CC(C)C)NC(=O)[C@H](CC(N)=O)NC(=O)[C@@H]4CCCN4C(=O)[C@H](CCCNC(=N)N)NC(=O)[C@H](CSSC[C@H](NC(=O)[C@@H](N)CC(=O)O)C(=O)N[C@@H](CC(C)C)C(=O)NCC(=O)N[C@@H](C)C(=O)N[C@@H](Cc4ccccc4)C(=O)N[C@@H](CCCNC(=N)N)C(=O)N[C@@H](CCCCN)C(=O)N2)NC(=O)[C@H](CSSC[C@@H](C(=O)N[C@@H](CCCCN)C(=O)N[C@@H](Cc2ccc(O)cc2)C(=O)N[C@H](C(=O)N[C@@H](Cc2ccccc2)C(=O)O)C(C)C)NC(=O)[C@H](Cc2c[nH]c4ccccc24)NC(=O)[C@H](CCC(N)=O)NC(=O)[C@H](Cc2c[nH]cn2)NC(=O)[C@H]([C@@H](C)O)NC(=O)[C@H](CCCNC(=N)N)NC(=O)[C@H](CO)NC3=O)NC(=O)[C@H](CCCCN)NC(=O)[C@H](CC(=O)O)NC(=O)[C@H](CC(N)=O)NC(=O)[C@H](CC(=O)O)NC(=O)[C@@H]2CCCN2C1=O` [compound 834] (H-DCLGAFRKCIPDNDKCCRPNLVCSRTHQWCKYVF-OH; disulfide 2-17, 9-23, 16-30), for which the values for the IC50 on hNav1.5, on hNav1.3 and on hNav1.7 were more than 5 µM, 3.9 µM and more than 5 µM, respectively.

On to `CC[C@H](C)[C@@H]1NC(=O)[C@@H]2CSSC[C@@H]3NC(=O)[C@H](C(C)C)NC(=O)[C@H](CC(C)C)NC(=O)[C@H](CC(N)=O)NC(=O)[C@@H]4CCCN4C(=O)[C@H](CCCNC(=N)N)NC(=O)[C@H](CSSC[C@H](NC(=O)[C@@H](N)CC(=O)O)C(=O)N[C@@H](CC(C)C)C(=O)NCC(=O)N[C@@H](C)C(=O)N[C@@H](Cc4ccccc4)C(=O)N[C@@H](CCCNC(=N)N)C(=O)N[C@@H](CCCCN)C(=O)N2)NC(=O)[C@H](CSSC[C@@H](C(=O)N[C@@H](CCCCN)C(=O)N[C@@H](Cc2ccc(O)cc2)C(=O)N[C@H](C(=O)N[C@@H](Cc2ccccc2)C(=O)O)C(C)C)NC(=O)[C@H](Cc2c[nH]c4ccccc24)NC(=O)[C@H](CO)NC(=O)[C@H](Cc2c[nH]cn2)NC(=O)[C@H]([C@@H](C)O)NC(=O)[C@H](CCCNC(=N)N)NC(=O)[C@H](CO)NC3=O)NC(=O)[C@H](CCCCN)NC(=O)[C@H](CC(=O)O)NC(=O)[C@H](CC(N)=O)NC(=O)[C@H](CC(=O)O)NC(=O)[C@@H]2CCCN2C1=O` [compound 835] (H-DCLGAFRKCIPDNDKCCRPNLVCSRTHSWCKYVF-OH; disulfide 2-17, 9-23, 16-30), for which the IC50 on hNav1.5, on hNav1.3 and on hNav1.7 was more than 5 µM each time.

Regarding `CC[C@H](C)[C@@H]1NC(=O)[C@@H]2CSSC[C@@H]3NC(=O)[C@H](C(C)C)NC(=O)[C@H](CC(C)C)NC(=O)[C@H](CC(N)=O)NC(=O)[C@@H]4CCCN4C(=O)[C@H](CCCNC(=N)N)NC(=O)[C@H](CSSC[C@H](NC(=O)[C@@H](N)CC(=O)O)C(=O)N[C@@H](CC(C)C)C(=O)NCC(=O)N[C@@H](C)C(=O)N[C@@H](Cc4ccccc4)C(=O)N[C@@H](CCCNC(=N)N)C(=O)N[C@@H](CCCCN)C(=O)N2)NC(=O)[C@H](CSSC[C@@H](C(=O)N[C@@H](CCCCN)C(=O)N[C@@H](Cc2ccc(O)cc2)C(=O)N[C@H](C(=O)N[C@@H](Cc2ccccc2)C(=O)O)C(C)C)NC(=O)[C@H](Cc2c[nH]c4ccccc24)NC(=O)[C@H](CCCNC(=N)N)NC(=O)[C@H](Cc2c[nH]cn2)NC(=O)[C@H]([C@@H](C)O)NC(=O)[C@H](CCCNC(=N)N)NC(=O)[C@H](CO)NC3=O)NC(=O)[C@H](CCCCN)NC(=O)[C@H](CC(=O)O)NC(=O)[C@H](C)NC(=O)[C@H](CC(=O)O)NC(=O)[C@@H]2CCCN2C1=O` [compound 836] (H-DCLGAFRKCIPDADKCCRPNLVCSRTHRWCKYVF-OH; disulfide 2-17, 9-23, 16-30), the IC50 at hNav1.5 is more than 5 µM; at hNav1.3, 1.3 µM; on hNav1.7 it was 4.1 µM.

As for `CC[C@H](C)[C@@H]1NC(=O)[C@@H]2CSSC[C@@H]3NC(=O)[C@H](C(C)C)NC(=O)[C@H](CC(C)C)NC(=O)[C@H](CC(N)=O)NC(=O)[C@@H]4CCCN4C(=O)[C@H](CCCNC(=N)N)NC(=O)[C@H](CSSC[C@H](NC(=O)[C@@H](N)CC(=O)O)C(=O)N[C@@H](CC(C)C)C(=O)NCC(=O)N[C@@H](C)C(=O)N[C@@H](Cc4ccccc4)C(=O)N[C@@H](CCCNC(=N)N)C(=O)N[C@@H](CCCCN)C(=O)N2)NC(=O)[C@H](CSSC[C@@H](C(=O)N[C@@H](CCCCN)C(=O)N[C@@H](Cc2ccc(O)cc2)C(=O)N[C@H](C(=O)N[C@@H](Cc2ccccc2)C(=O)O)C(C)C)NC(=O)[C@H](Cc2c[nH]c4ccccc24)NC(=O)[C@H](CCCNC(=N)N)NC(=O)[C@H](Cc2c[nH]cn2)NC(=O)[C@H]([C@@H](C)O)NC(=O)[C@H](CCCNC(=N)N)NC(=O)[C@H](CO)NC3=O)NC(=O)[C@H](CCCCN)NC(=O)[C@H](CC(=O)O)NC(=O)[C@H](CC(=O)O)NC(=O)[C@H](CC(=O)O)NC(=O)[C@@H]2CCCN2C1=O` [compound 837], the IC50 is more than 5 µM at hNav1.5, 2.3 µM on hNav1.3 and more than 5 µM at hNav1.7.

Consider `CC[C@H](C)[C@@H]1NC(=O)[C@@H]2CSSC[C@@H]3NC(=O)[C@H](C(C)C)NC(=O)[C@H](CC(C)C)NC(=O)[C@H](CC(N)=O)NC(=O)[C@@H]4CCCN4C(=O)[C@H](CCCNC(=N)N)NC(=O)[C@H](CSSC[C@H](NC(=O)[C@@H](N)CC(=O)O)C(=O)N[C@@H](CC(C)C)C(=O)NCC(=O)N[C@@H](C)C(=O)N[C@@H](Cc4ccccc4)C(=O)N[C@@H](CCCNC(=N)N)C(=O)N[C@@H](CCCCN)C(=O)N2)NC(=O)[C@H](CSSC[C@@H](C(=O)N[C@@H](CCCCN)C(=O)N[C@@H](Cc2ccc(O)cc2)C(=O)N[C@H](C(=O)N[C@@H](Cc2ccccc2)C(=O)O)C(C)C)NC(=O)[C@H](Cc2c[nH]c4ccccc24)NC(=O)[C@H](CCCNC(=N)N)NC(=O)[C@H](Cc2c[nH]cn2)NC(=O)[C@H]([C@@H](C)O)NC(=O)[C@H](CCCNC(=N)N)NC(=O)[C@H](CO)NC3=O)NC(=O)[C@H](CCCCN)NC(=O)[C@H](CC(=O)O)NC(=O)[C@H](CCC(=O)O)NC(=O)[C@H](CC(=O)O)NC(=O)[C@@H]2CCCN2C1=O` [compound 838], for which the IC50 at hNav1.5 was more than 5 µM; at hNav1.3 it was 1.9 µM; at hNav1.7, more than 5 µM.

Turning to `CC[C@H](C)[C@@H]1NC(=O)[C@@H]2CSSC[C@@H]3NC(=O)[C@H](C(C)C)NC(=O)[C@H](CC(C)C)NC(=O)[C@H](CC(N)=O)NC(=O)[C@@H]4CCCN4C(=O)[C@H](CCCNC(=N)N)NC(=O)[C@H](CSSC[C@H](NC(=O)[C@@H](N)CC(=O)O)C(=O)N[C@@H](CC(C)C)C(=O)NCC(=O)N[C@@H](C)C(=O)N[C@@H](Cc4ccccc4)C(=O)N[C@@H](CCCNC(=N)N)C(=O)N[C@@H](CCCCN)C(=O)N2)NC(=O)[C@H](CSSC[C@@H](C(=O)N[C@@H](CCCCN)C(=O)N[C@@H](Cc2ccc(O)cc2)C(=O)N[C@H](C(=O)N[C@@H](Cc2ccccc2)C(=O)O)C(C)C)NC(=O)[C@H](Cc2c[nH]c4ccccc24)NC(=O)[C@H](CCCNC(=N)N)NC(=O)[C@H](Cc2c[nH]cn2)NC(=O)[C@H]([C@@H](C)O)NC(=O)[C@H](CCCNC(=N)N)NC(=O)[C@H](CO)NC3=O)NC(=O)[C@H](CCCCN)NC(=O)[C@H](CC(=O)O)NC(=O)[C@H](Cc2ccccc2)NC(=O)[C@H](CC(=O)O)NC(=O)[C@@H]2CCCN2C1=O` [compound 839], the IC50 on hNav1.5 is more than 5 µM; at hNav1.3 it was 1.2 µM; at hNav1.7, more than 5 µM.
